In patent EP0761672A1, “Cephalosporin containing in position 7 a substituted benzyloxyimino radical, processes for their preparation and intermediates for their preparation, their use as medicaments” (ROUSSEL UCLAF, priority 1995, dated 1997) one finds MIC data, which are given here for eight compounds.

Holding throughout (assay): In vitro activity, dilution method in solid medium (MIC)
Common to all, as to type: cell-based

Test [1] deals with Staphylocoques Pénicilline résistants. The following applies: Staphylocoques Pénicilline résistants (22 souches); geometric mean of all MICs of the strain group; 24 h incubation at 37°C; read-out: concentrations minimales inhibitrices (CMI), moyennes géométriques. The method, then:
(§1) Activité in vitro, méthode des dilutions en milieu solide.
(§2) On prépare une série de boîtes dans lesquelles on répartit une même quantité de milieu nutritif stérile, contenant des quantités croissantes du produit à étudier puis chaque boîte est ensemencée avec plusieurs souches bactériennes.
(§3) Après incubation de 24 heures en étuve à 37°C, l'inhibition de la croissance est appréciée par l'absence de tout développement bactérien ce qui permet de déterminer les concentrations minimales inhibitrices (CMI) exprimées en microgrammes/cm^3.
(§4) Les résultats sont exprimés sous forme de moyennes géométriques de toutes les CMI obtenues, pour un groupe de souches particulier.

The test system of test [2] is Enterobactéries Céfotaxime résistantes. The following applies: 24 h, read-out: concentrations minimales inhibitrices (CMI), moyennes géométriques. The protocol: as §1, §2, §3, §4
The test system of another test is Pseudomonas aeruginosa. The following applies: Pseudomonas aeruginosa (23 souches); geometric mean of all MICs of the strain group; 24 h incubation at 37°C; read-out: concentrations minimales inhibitrices (CMI), moyennes géométriques. The protocol:
as §1, §2, §3, §4

Converted amounts (≈) assume the structure as drawn.

With `Nc1nc(/C(=N/OCc2cc(Cl)c(O)c(O)c2Cl)C(=O)N[C@@H]2C(=O)N3C(C(=O)[O-])=C(/C=C/C[n+]4cccc5ccccc54)CS[C@H]23)cs1` [Exemple 1], the MIC is 0.78 µg/mL (≈ 1.07 µM) in test [1] and 0.11 µg/mL (≈ 0.151 µM) in test [2].
For the compound `Nc1nc(/C(=N/OCc2cc(Cl)c(O)c(O)c2Cl)C(=O)N[C@@H]2C(=O)N3C(C(=O)[O-])=C(/C=C/C[n+]4ccn5ccccc54)CS[C@H]23)cs1` [Exemple 2], the MIC was determined as 0.42 µg/mL (≈ 0.586 µM) in the test with Pseudomonas aeruginosa, 0.91 µg/mL (≈ 1.27 µM) in test [1] and 0.19 µg/mL (≈ 0.265 µM) in test [2].
As for `Nc1nc(/C(=N/OCc2cc(Cl)c(O)c(O)c2Cl)C(=O)N[C@@H]2C(=O)N3C(C(=O)[O-])=C(/C=C/C[n+]4cccc5c4CCC5)CS[C@H]23)cs1` [Exemple 3], the results for the MIC (in the test with Pseudomonas aeruginosa; in test [1]; in test [2]) were 0.26 µg/mL (≈ 0.362 µM), 1.37 µg/mL (≈ 1.91 µM) and 0.13 µg/mL (≈ 0.181 µM), respectively.
For `Nc1nc(/C(=N/OCc2cc(F)c(O)c(O)c2F)C(=O)N[C@@H]2C(=O)N3C(C(=O)[O-])=C(/C=C/C[n+]4cccc5ccccc54)CS[C@H]23)cs1` [Exemple 4], in that order: 0.14 µg/mL (≈ 0.202 µM), 0.37 µg/mL (≈ 0.533 µM) and 0.38 µg/mL (≈ 0.547 µM).
With `Nc1nc(/C(=N/OCc2cc(F)c(O)c(O)c2F)C(=O)N[C@@H]2C(=O)N3C(C(=O)[O-])=C(/C=C/C[n+]4ccn5ccccc54)CS[C@H]23)cs1` [Exemple 5], the MIC in test [1] amounted to 0.55 µg/mL (≈ 0.804 µM); in test [2], 0.26 µg/mL (≈ 0.38 µM).
For `Nc1nc(/C(=N/OCc2cc(F)c(O)c(O)c2F)C(=O)N[C@@H]2C(=O)N3C(C(=O)[O-])=C(/C=C/C[n+]4cccc5c4CCC5)CS[C@H]23)cs1` [Exemple 6], the MIC with Pseudomonas aeruginosa is 1.12 µg/mL (≈ 1.64 µM); in test [1], 0.63 µg/mL (≈ 0.92 µM); in test [2], 0.36 µg/mL (≈ 0.526 µM).
As for `Nc1nc(/C(=N/OCc2cc(O)c(O)c(F)c2)C(=O)N[C@@H]2C(=O)N3C(C(=O)[O-])=C(/C=C/C[n+]4cccc5ccccc54)CS[C@H]23)cs1` [Exemple 7], the MIC was 0.47 µg/mL (≈ 0.695 µM) with Pseudomonas aeruginosa, 0.3 µg/mL (≈ 0.443 µM) in test [1] and 0.2 µg/mL (≈ 0.296 µM) in test [2].
For `COC(=O)C(O/N=C(\C(=O)N[C@@H]1C(=O)N2C(C(=O)[O-])=C(/C=C/C[n+]3cccc4ccccc43)CS[C@H]12)c1csc(N)n1)c1cc(O)c(O)c(F)c1` (stereo partly drawn) [Exemple 8], the MIC in the test with Pseudomonas aeruginosa turned out to be 0.49 µg/mL (≈ 0.667 µM); in test [1], 0.3 µg/mL (≈ 0.408 µM).
